From ChEMBL document CHEMBL1201862, “PubChem BioAssay data set” (2004)
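96-well plates; 48 h exposure; 5 concentrations. Endpoints by linear interpolation between flanking doses. Not reached: highest tested concentration assigned. The concentration for 50% growth inhibition is given as GI50.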 Activity calls are given as the source filed them. No stated cut-off is given here; in the data, active = GI50 up to about 1.1 µM and inactive = higher.

Assays:
Test in all cases: inhibition of tumour cell growth, NCI panel, 48 h
[1] = system: IGROV-1
[2] = system: SR
[3] = system: CAKI-1
[4] = system: OVCAR-3
[5] = system: UACC-62
[6] = system: MDA-MB-231
[7] = system: CCRF-CEM
[8] = system: HL-60
[9] = system: RXF 393
[10] = system: NCI/ADR-RES
[11] = system: 786-0
[12] = system: NCI-H522
[13] = system: NCI-H460
[14] = system: MDA-N
[15] = system: SF-268
[16] = system: OVCAR-4
[17] = system: A549
[18] = system: SK-OV-3
[19] = system: HOP-62
[20] = system: MDA-MB-435

| Structure (SMILES) | GI50 [1] | GI50 [2] | GI50 [3] | GI50 [4] | GI50 [5] | GI50 [6] | GI50 [7] | GI50 [8] | GI50 [9] | GI50 [10] | GI50 [11] | GI50 [12] | GI50 [13] | GI50 [14] | GI50 [15] | GI50 [16] | GI50 [17] | GI50 [18] | GI50 [19] | GI50 [20] |
| --- | --- | --- | --- | --- | --- | --- | --- | --- | --- | --- | --- | --- | --- | --- | --- | --- | --- | --- | --- | --- |
| c1cc(-c2ccc(-c3ccc(-c4ccc(-c5ccncc5)o4)cc3)o2)ccn1 | 19.1 µM (inactive) | 24.1 µM (inactive) | 21.4 µM (inactive) | 23 µM (inactive) | 17.9 µM (inactive) | 29 µM (inactive) | 5.68 µM (inactive) | 18.5 µM (inactive) | > 100 µM (inactive) | 31.2 µM (inactive) | 15.9 µM (inactive) | 15.3 µM (inactive) | 15.2 µM (inactive) | 16.7 µM (inactive) | 20.7 µM (inactive) | 14.9 µM (inactive) | 18.4 µM (inactive) | 21.1 µM (inactive) | 22.1 µM (inactive) | 15.5 µM (inactive) |
| COc1ccc2nc3cc(Cl)ccc3c(NCCCCCC(=O)NC(COc3cnc4c(ccc5cccnc54)c3)COc3cnc4c(ccc5cccnc54)c3)c2c1 | 10 µM (inactive) | 2.76 µM (inactive) | 36.1 µM (inactive) | 4.02 µM (inactive) | 21.4 µM (inactive) | 6.34 µM (inactive) | 1.99 µM (inactive) | 3.44 µM (inactive) | 10.8 µM (inactive) | > 100 µM (inactive) | 11 µM (inactive) | 26.9 µM (inactive) | 5.47 µM (inactive) | 19 µM (inactive) | 12.8 µM (inactive) | 7.28 µM (inactive) | 29.1 µM (inactive) | 21.9 µM (inactive) | 15.7 µM (inactive) | 18.5 µM (inactive) |
| NC1(C(=O)O)CCCC1C(=O)O (stereo not drawn) | > 100 µM (inactive) | > 100 µM (inactive) | > 100 µM (inactive) | > 100 µM (inactive) | > 100 µM (inactive) | > 100 µM (inactive) | > 100 µM (inactive) | > 100 µM (inactive) | > 100 µM (inactive) | > 100 µM (inactive) | > 100 µM (inactive) | > 100 µM (inactive) | > 100 µM (inactive) | > 100 µM (inactive) | > 100 µM (inactive) | > 100 µM (inactive) | > 100 µM (inactive) | > 100 µM (inactive) | > 100 µM (inactive) | > 100 µM (inactive) |
| CCc1nc(N)nc(N)c1-c1ccc(Cl)c([N+](=O)[O-])c1 | 0.0778 µM (active) | 0.0439 µM (active) | 0.242 µM (active) | 8.05 µM (inactive) | 0.0573 µM (active) | 24.4 µM (inactive) | 0.0557 µM (active) | 0.053 µM (active) | 10.8 µM (inactive) | 0.334 µM (active) | 0.0869 µM (active) | 0.719 µM (active) | < 0.028 µM (active) | 0.0764 µM (active) | 0.239 µM (active) | 22.6 µM (inactive) | 0.0218 µM (active) | 11.2 µM (inactive) | 0.596 µM (active) | 0.0752 µM (active) |
| COc1ccc(-c2nc3cc(F)ccc3s2)cc1O | 3.81 µM (inactive) | 19.1 µM (inactive) | 23.3 µM (inactive) | 29.7 µM (inactive) | 30.7 µM (inactive) | 39.6 µM (inactive) | 4.53 µM (inactive) | 32.6 µM (inactive) | 36.8 µM (inactive) | 46.3 µM (inactive) | 18.9 µM (inactive) | 16.3 µM (inactive) | 21.3 µM (inactive) | 57.3 µM (inactive) | 28 µM (inactive) | 28.8 µM (inactive) | 34.1 µM (inactive) | 29.8 µM (inactive) | – | 56.1 µM (inactive) |
| C=C1CC[C@@]2(OC1)OC1C[C@H]3[C@@H]4CC=C5C[C@@H](O)CC(OC6OCC(OC(=O)[C@@H](O)[C@@H](C)CC)C(OC(C)=O)C6OC6OC(C)C(O)C(O)C6O)[C@]5(C)[C@H]4CC[C@]3(C)C1[C@@H]2C (stereo partly drawn) | 2.56 µM (inactive) | 2.07 µM (inactive) | 2.65 µM (inactive) | 1.85 µM (inactive) | 1.77 µM (inactive) | 1.75 µM (inactive) | 1.53 µM (inactive) | 1.81 µM (inactive) | 1.93 µM (inactive) | 2.32 µM (inactive) | 1.82 µM (inactive) | 1.76 µM (inactive) | 1.72 µM (inactive) | 1.92 µM (inactive) | 2.06 µM (inactive) | 2.81 µM (inactive) | 2.21 µM (inactive) | 1.83 µM (inactive) | – | 1.76 µM (inactive) |
| CC1=NN(c2cccc(Cl)c2)C2(C1=Cc1ccc(N(C)C)cc1)C(Cl)C(=O)N2c1nc2ccccc2s1 (stereo not drawn) | 40.7 µM (inactive) | > 100 µM (inactive) | 72.9 µM (inactive) | 39.5 µM (inactive) | – | 46.8 µM (inactive) | 50.5 µM (inactive) | > 100 µM (inactive) | 20.3 µM (inactive) | 63.5 µM (inactive) | 43.1 µM (inactive) | 19.1 µM (inactive) | > 100 µM (inactive) | 63.7 µM (inactive) | 20.3 µM (inactive) | 24.2 µM (inactive) | – | 34.4 µM (inactive) | 17.8 µM (inactive) | 6.18 µM (inactive) |
| O=C1NCCN1/N=C/c1c(Cl)n(-c2ccccc2)c2ccccc12 | 17.2 µM (inactive) | 28 µM (inactive) | 17.3 µM (inactive) | 66.4 µM (inactive) | 16 µM (inactive) | 13.6 µM (inactive) | 29 µM (inactive) | 27.4 µM (inactive) | > 10 µM (inactive) | 19.5 µM (inactive) | 26.1 µM (inactive) | 16.1 µM (inactive) | – | 9.25 µM (inactive) | 20.1 µM (inactive) | 48.1 µM (inactive) | 23.9 µM (inactive) | 46.2 µM (inactive) | 94.4 µM (inactive) | 12.4 µM (inactive) |
| [N-]=[N+]=Nc1c(-c2ccccc2)c(Cl)nc2ccccc12 | 39.5 µM (inactive) | 39.5 µM (inactive) | 31.8 µM (inactive) | 44.6 µM (inactive) | – | 31.8 µM (inactive) | > 100 µM (inactive) | 56.2 µM (inactive) | 51.6 µM (inactive) | 34.8 µM (inactive) | 38 µM (inactive) | 18.1 µM (inactive) | 31.5 µM (inactive) | 27 µM (inactive) | 48.1 µM (inactive) | 21.9 µM (inactive) | 29.9 µM (inactive) | 86.3 µM (inactive) | 34.1 µM (inactive) | 38.3 µM (inactive) |
| CCCCCCCCOC(=O)C12Oc3ccc(-c4ccc5c(c4O)C(=O)C4=C(O)CC(C)C(O)C4(C(=O)OCCCCCCCC)O5)c(O)c3C(=O)C1=C(O)CC(C)C2O (stereo not drawn) | 8.67 µM (inactive) | 4.26 µM (inactive) | 25.2 µM (inactive) | 24.2 µM (inactive) | 15.8 µM (inactive) | 23.8 µM (inactive) | 2.05 µM (inactive) | 2.92 µM (inactive) | 2.7 µM (inactive) | 30.7 µM (inactive) | 19.1 µM (inactive) | 8.36 µM (inactive) | 4.66 µM (inactive) | 18 µM (inactive) | 12.2 µM (inactive) | 19.6 µM (inactive) | 4.79 µM (inactive) | 18.7 µM (inactive) | – | 9.86 µM (inactive) |
